Measurements: article PMC1208959 (Virology Journal, 2005)

Legend:
[1] = molecular target: HeV F and HeV G glycoproteins (Hendra virus, UniProt O89342); type: cell-based
[2] = molecular target: NiV F and NiV G glycoproteins (Nipah virus, UniProt Q9IH63); type: cell-based
Sequence of NiV F and NiV G glycoproteins (Q9IH63 110-546 limits assumed): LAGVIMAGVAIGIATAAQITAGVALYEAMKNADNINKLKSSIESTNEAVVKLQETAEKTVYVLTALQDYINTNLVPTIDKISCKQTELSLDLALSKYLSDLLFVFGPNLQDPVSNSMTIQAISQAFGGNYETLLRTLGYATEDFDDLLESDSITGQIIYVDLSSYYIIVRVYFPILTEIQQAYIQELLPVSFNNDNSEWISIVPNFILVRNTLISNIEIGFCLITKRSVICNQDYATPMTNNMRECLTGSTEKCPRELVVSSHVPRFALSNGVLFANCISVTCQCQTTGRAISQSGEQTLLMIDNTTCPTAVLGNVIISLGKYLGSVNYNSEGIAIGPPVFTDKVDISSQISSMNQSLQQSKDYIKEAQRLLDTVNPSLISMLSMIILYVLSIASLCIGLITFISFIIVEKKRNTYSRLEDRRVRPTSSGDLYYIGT
Sequence of NiV F and NiV G glycoproteins (Q9IH63 27-109 partner limits assumed): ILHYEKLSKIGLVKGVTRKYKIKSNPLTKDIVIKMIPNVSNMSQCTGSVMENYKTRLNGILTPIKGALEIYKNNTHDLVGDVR

Sequence of HeV F and HeV G glycoproteins (O89342 110-546 limits assumed): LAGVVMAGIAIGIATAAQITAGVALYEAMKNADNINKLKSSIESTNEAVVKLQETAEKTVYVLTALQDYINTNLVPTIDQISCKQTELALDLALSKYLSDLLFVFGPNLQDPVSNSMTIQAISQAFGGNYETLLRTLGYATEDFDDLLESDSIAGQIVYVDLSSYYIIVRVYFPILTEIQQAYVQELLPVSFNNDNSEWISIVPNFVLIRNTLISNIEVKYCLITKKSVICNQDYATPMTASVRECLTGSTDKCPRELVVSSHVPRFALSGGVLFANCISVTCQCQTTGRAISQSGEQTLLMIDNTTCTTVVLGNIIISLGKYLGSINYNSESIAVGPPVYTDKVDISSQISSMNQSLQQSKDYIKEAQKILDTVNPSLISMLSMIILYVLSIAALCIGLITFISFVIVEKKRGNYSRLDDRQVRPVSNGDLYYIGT
Sequence of HeV F and HeV G glycoproteins (O89342 27-109 partner limits assumed): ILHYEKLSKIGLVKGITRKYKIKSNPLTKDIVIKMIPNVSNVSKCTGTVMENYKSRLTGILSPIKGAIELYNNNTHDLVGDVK

Row | Molecule | reduction of activity versus N-PEG-NiV FC2 [1] | reduction of activity versus N-PEG-NiV FC2 [2] | inhibitory effect on cell-fusion (in words) [1] | inhibitory effect on cell-fusion (in words) [2] | effect on virus infection (in words) (live HeV) | syncytial morphology and size (in words) (live HeV) | effect on virus infection (in words) (live NiV) | syncytial morphology and size (in words) (live NiV)
1 | CC[C@H](C)[C@H](NC(=O)[C@H](Cc1ccc(O)cc1)NC(=O)[C@H](CC(=O)O)NC(=O)[C@H](CCCCN)NC(=O)[C@H](CO)NC(=O)[C@H](CCC(N)=O)NC(=O)[C@H](CCC(N)=O)NC(=O)[C@H](CC(C)C)NC(=O)[C@H](CO)NC(=O)[C@H](CCC(N)=O)NC(=O)[C@H](CC(N)=O)NC(=O)[C@H](CCSC)NC(=O)[C@H](CO)NC(=O)[C@H](CO)NC(=O)[C@@H](NC(=O)[C@H](CCC(N)=O)NC(=O)[C@H](CO)NC(=O)[C@H](CO)NC(=O)[C@@H](NC(=O)[C@H](CC(=O)O)NC(=O)[C@@H](NC(=O)[C@H](CCCCN)NC(C)=O)C(C)C)[C@@H](C)CC)[C@@H](C)CC)C(=O)N[C@@H](CCCCN)C(=O)N[C@@H](CCC(=O)O)C(=O)N[C@@H](C)C(=O)N[C@@H](CCC(N)=O)C(=O)N[C@@H](CCCNC(=N)N)C(=O)N[C@@H](CC(C)C)C(=O)N[C@@H](CC(C)C)C(=O)N[C@@H](CC(=O)O)C(=O)N[C@H](C(=O)N[C@H](C(=O)N[C@@H](CC(N)=O)C(=O)N1CCC[C@H]1C(=O)N[C@@H](CO)C(=O)N[C@@H](CC(C)C)C(=O)NCCOCCOCCOCCOCCOCCOCCOCCOCCOCCOCCOCCOCCC(=O)O)C(C)C)[C@@H](C)O [C-PEG NiV FC2] | approximately 20 fold | approximately 20 fold |  |  |  |  |  | 
2 | KQSSMISLQSQKSINSLPSQIRDYVQKTVLLAEDND [C-PEG-ScNiV FC2, reference compound] |  |  | no inhibitory activity | no inhibitory activity | no effect at any concentration tested | identical to those observed in the absence of any peptide | no effect at any concentration tested | identical to those observed in the absence of any peptide
3 | Ac-KQSSMISLQSQKSINSLPSQIRDYVQKTVLLAEDND-NH2 [capped-ScNiV FC2] |  |  | no inhibitory effect | no inhibitory effect |  |  |  | 
